System: hEPO protein expression
Assay: In vivo expression of hEPO after IM injection of hEPO mRNA lipid nanoparticles (serum ELISA)
Details: LNP with hEPO mRNA, cationic lipid, DMG-PEG2000, cholesterol, DOPE, single IM injection into gastrocnemius, 0.1 ug, male BALB/c mice, FIG. 1
Description: Lipid nanoparticle formulations comprising human erythropoietin (hEPO) mRNA, a cationic Lipid, DMG-PEG2000, cholesterol and DOPE were administered intramuscularly to study mRNA delivery and resultant hEPO expression. Male BALB/c mice at 6-8 weeks old are given a single injection of the LNP formulations into the gastrocnemius muscle at a dosage level of 0.1 ug. Blood samples were collected at 6 and 24 hours post-dose. hEPO protein expression levels were measured in the sera samples by ELISA and presented in FIG. 1.

| SMILES | in vivo protein production (hEPO protein expression levels in sera) (6 hours after administration) | in vivo protein production (hEPO protein expression levels in sera) (24 hours after administration) |
| --- | --- | --- |
| CCCCCCCCCCC(O)CN(CCSC(=O)c1ccc(C(=O)SCCN(CC(O)CCCCCCCCCC)CC(O)CCCCCCCCCC)cc1)CC(O)CCCCCCCCCC (stereo not drawn) [Compound 98] | high levels of in vivo protein production | high levels of in vivo protein production |
| CCCCCCCCC(O)CN(CCSC(=O)[C@H]1CC[C@H](C(=O)SCCN(CC(O)CCCCCCCC)CC(O)CCCCCCCC)CC1)CC(O)CCCCCCCC (stereo partly drawn) [Compound 79] | high levels of in vivo protein production | – |

Source: US12453759B2, “Di-thioester cationic lipids” (TRANSLATE BIO, INC., priority 2019, dated 2025)
